How the values were obtained:
[1] = Cytotoxicity on mouse spleen cells (CCK-8 assay); type: cell-based, BALB/c mice; details: female, fresh mouse spleen cells (splenic lymphocytes), BALB/c mouse spleen cells
Protocol: (§1) Female BALB/c mice were sacrificed by cervical dislocation, and their spleens were aseptically removed. After cell debris, mononuclear cell suspensions were prepared, and clumps were removed. Erythrocytes were depleted with ammonium chloride buffer solution. Lymphocytes were washed and resuspended in RPMI 1640 medium supplemented with 10% FBS, penicillin (100 U/mL), and streptomycin ([…]).
We used the Cell Counting Kit-8 (CCK-8) assay to test cytotoxicity. In brief, fresh spleen cells were obtained from female BALB/c mice (18–20 g). Spleen cells (1 × 10^6 cells) were seeded in triplicate in 96-well flat plates and cultured at 37 °C for 48 h, with or without compounds of various concentrations, in a humidified and 5% CO2-containing incubator. A certain amount of CCK-8 was added to each well during the last 8–10 h of culture. At the end of the culture, we use a microplate reader (Bio-Rad 650) to measure the OD value at 450 nm. […] Only the OD value of culture medium is used as background. The cytotoxicity of compounds was expressed as the concentration of the compounds that reduces cell viability to 50% (CC50).

B lymphocyte cells = test: LPS-induced B-cell proliferation ([3H]-thymidine uptake); type: cell-based, BALB/c mice; details: Mus musculus, spleen cells stimulated with 10 µg/mL LPS
Protocol: as §1
As mentioned above, fresh spleen cells were obtained from female BALB/c mice (18–20 g). Similarly, the 5 × 10^5 spleen cells were cultured at the same conditions. The cultures, with or without various concentrations of compounds, were stimulated with 5 µg/mL of concanavalin A (ConA) to induce the T cells’ proliferative response or 10 µg/mL of lipopolysaccharide (LPS) to induce B cells’ proliferative response. Proliferation was assessed in terms of uptake of [^3H]-thymidine during 8 h of pulsing with 25 µL/well of [^3H]-thymidine, then cells will be harvested onto glass fiber filters. A Beta scintillation counter was used to count the incorporated radioactivity. Cells treated without any stimuli were used as a negative control. The immunosuppressive activity was expressed as the concentration of the compound that inhibited T or B cell proliferation to 50% (IC50) of the control value. Both the cytotoxicity and proliferation assessment were repeated twice.

T lymphocyte cells = test: ConA-induced T-cell proliferation ([3H]-thymidine uptake); type: cell-based, BALB/c mice; details: Mus musculus, spleen cells stimulated with 5 µg/mL ConA, read-out: Con A-Induced T-Cell Proliferation IC50
Protocol: as §1

Compound | CC50 at 48 h [1] | IC50 (B lymphocyte cells) | IC50 (T lymphocyte cells) | melting point
C=C1C2CN(CC(=O)O)CC3C2C(C(C)C)CCC13C (stereo not shown) [Compound 19, Craterodoratin S] | > 40 µM | 22.7 ± 1.67 µM | – | –
C=C1CCC2CC1C2(COC(C)=O)CC(O)C=C(C)C(=O)O (stereo not shown) [Compound 17, Craterodoratin Q] | > 40 µM | – | 31.5 ± 1.79 µM | –
CC(=CC(O)CC12COC3(CO)CCC1CC32)C(=O)O (stereo not shown) [Compound 10, Craterodoratin J] | > 40 µM | 19.4 ± 0.48 µM | – | –
CC(=CCCC1(C)C2CCC(CO)(C2)C1O)C(=O)O (stereo not shown) [Compound 3, Craterodoratin C] | > 40 µM | 12.6 ± 1.14 µM | – | 180.7 to 182.4 °C
CC(=CCCC1(C)C2CCC(CO)C1(O)C2)C(=O)O (stereo not shown) [Compound 14, Craterodoratin N] | > 40 µM | 13.3 ± 1.29 µM | – | –
CC(=CCCC1(C)C2CCC(CO)C1C2)C(=O)O (stereo not shown) [Compound 13, Craterodoratin M] | > 40 µM | 15.4 ± 1.03 µM | – | –
CC(=CC(=O)CC12C(=O)OC3(C)CCC1CC32)C(=O)O (stereo not shown) [Compound 12, Craterodoratin L] | > 40 µM | 13.7 ± 0.65 µM | – | –
CC(=CC(O)CC12COC3(C)CCC1CC32)C(=O)O (stereo not shown) [Compound 20, massarinolin B] | > 40 µM | 0.67 ± 0.004 µM | 0.98 ± 0.01 µM | –
C=C1CCC2(O)CC1C2(C)CCC=C(C)C(=O)O (stereo not shown) [Compound 15, Craterodoratin O] | > 40 µM | 17.1 ± 1.14 µM | – | –
CC(=CC1CC23C4CCC(C)(OC2O1)C3C4)C(=O)O (stereo not shown) [Compound 23, donacinoic acid A] | > 40 µM | 13.2 ± 0.97 µM | – | –

— publication PMC8707212, “Immunosuppressive Sesquiterpenoids from the Edible Mushroom Craterellus odoratus” (Journal of Fungi, 2021)
